According to patent US20100216751A1 (priority 2007, published 2010):

Test: Solubility of bevirimat and bevirimat dimeglumine in single vehicles
Settings: in 100% water, 100% saline, 100% dextrose, 100% PEG 400, and 25% Poloxamer 188

## C=C(C)[C@@H]1CC[C@]2(C(=O)O)CC[C@]3(C)[C@H](CC[C@@H]4[C@@]5(C)CC[C@H](OC(=O)CC(C)(C)C(=O)O)C(C)(C)[C@@H]5CC[C@]43C)[C@@H]12 [Bevirimat, 3-O-(3′,3′-dimethylsuccinyl)betulinic acid]
  solubility (in words): poorly soluble
